Data taken from the supplement of paper PMC5722580.

Legend:
[1] = system: KAI3; assay: drug sensitivity score (viability inhibition); higher = more sensitive; conditions: 72 h; IL2 2.5 ng/ml
Protocol: (§1)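 NK-cell leukemia/lymphoma cell lines (3,000 cells/well) were cultured with IL2 2.5 ng/ml in 384-well drug plates (5-8 concentrations over a 10,000-fold range) for 72 h at 37 C; viability was read with CellTiter-Glo. DSS is a normalised area under the dose-response curve; the experiment was repeated twice.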

[2] = system: KHYG-1; assay: as above; conditions: 72 h; IL2 2.5 ng/ml
Protocol: as §1

[3] = system: NK-92; assay: as above; conditions: 72 h; IL2 2.5 ng/ml
Protocol: as §1

[4] = system: NK-YS; assay: as above; conditions: 72 h; IL2 2.5 ng/ml
Protocol: as §1

[5] = system: NKL; assay: as above; conditions: 72 h; IL2 2.5 ng/ml
Protocol: as §1

[6] = system: SNK6; assay: as above; conditions: 72 h; IL2 2.5 ng/ml
Protocol: as §1

[7] = system: YT; assay: as above; conditions: 72 h; IL2 2.5 ng/ml
Protocol: as §1

[8] = system: HEK293-SIE STAT3 WT; assay: drug sensitivity score (inhibition of STAT3 luciferase reporter); higher = stronger inhibition; conditions: 6 h; STAT3: WT; IL6 100 ng/ml
Protocol: (§2)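 HEK293 cells with a STAT3-inducible (SIE) luciferase reporter, stably expressing WT STAT3 (IL6 100 ng/ml) or Y640F STAT3 (no IL6), were incubated 6 h with drugs in 384-well plates (5-8 concentrations over a 10,000-fold range); luciferase was read with ONE-Glo. DSS is a normalised area under the dose-response curve; values are the mean of two experiments.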

[9] = system: HEK293-SIE STAT3 Y640F; assay: as above; conditions: 6 h; IL6 0 ng/ml
Protocol: as §2

Compound | drug sensitivity score [1] | drug sensitivity score [2] | drug sensitivity score [3] | drug sensitivity score [4] | drug sensitivity score [5] | drug sensitivity score [6] | drug sensitivity score [7] | drug sensitivity score [8] | drug sensitivity score [9]
CNC(=O)c1cc(Oc2ccc(NC(=O)Nc3ccc(Cl)c(C(F)(F)F)c3)c(F)c2)ccn1 [Regorafenib] | 2.25 DSS | 6.89 DSS | 8.97 DSS | 7.25 DSS | 5.14 DSS | 10.1 DSS | 8.71 DSS | 6.65 DSS | 5.5 DSS
CC(C)n1nc(-c2ccc3oc(N)nc3c2)c2c(N)ncnc21 [INK128] | 7.66 DSS | 7.21 DSS | 10.7 DSS | 11.8 DSS | 16.2 DSS | 8.08 DSS | 11.9 DSS | 13.8 DSS | 12 DSS
COc1c(C)cnc(Cn2cnc3c(Cl)nc(N)nc32)c1C [BIIB021] | 26 DSS | 26.4 DSS | 23 DSS | 24.7 DSS | 21.9 DSS | 25.4 DSS | 22.2 DSS | 15.3 DSS | 9.85 DSS
C[C@]12O[C@H](C[C@]1(O)CO)n1c3ccccc3c3c4c(c5c6ccccc6n2c5c31)CNC4=O [Lestaurtinib] | 18.3 DSS | 22 DSS | 14.3 DSS | 12.4 DSS | 14.6 DSS | 13 DSS | 13.5 DSS | 20.7 DSS | 10.8 DSS
O=P1(N(CCCl)CCCl)NCCCO1 (stereo not drawn) [Cyclophosphamide] | 1.89 DSS | 0 DSS | 0 DSS | 0.435 DSS | 0 DSS | 0.54 DSS | 0 DSS | 2.6 DSS | 1.17 DSS
NC1(c2ccc(-c3nc4ccn5c(=O)[nH]nc5c4cc3-c3ccccc3)cc2)CCC1 [MK-2206] | 6.43 DSS | 4.1 DSS | 6.29 DSS | 5 DSS | 4.44 DSS | 2.89 DSS | 2.45 DSS | 5.85 DSS | 0 DSS
N#CC[C@H](C1CCCC1)n1cc(-c2ncnc3[nH]ccc23)cn1 [Ruxolitinib] | 27.5 DSS | 30.5 DSS | 21.8 DSS | 19.5 DSS | 26.9 DSS | 22.2 DSS | 15.8 DSS | 34.1 DSS | 13.2 DSS
Cc1cc(Nc2nc(N[C@@H](C)c3ncc(F)cn3)ncc2Cl)[nH]n1 [AZD1480] | 17.4 DSS | 18.3 DSS | 7.65 DSS | 10.7 DSS | 13.7 DSS | 12.1 DSS | 6.65 DSS | 17.9 DSS | 8.77 DSS
CNC(=O)c1ccccc1Sc1ccc2c(/C=C/c3ccccn3)n[nH]c2c1 [Axitinib] | 10.9 DSS | 10.9 DSS | 6.72 DSS | 10.2 DSS | 8.05 DSS | 8.94 DSS | 8.91 DSS | 0 DSS | 0 DSS
N#CCNC(=O)c1ccc(-c2ccnc(Nc3ccc(N4CCOCC4)cc3)n2)cc1 [Momelotinib] | 13.9 DSS | 18.9 DSS | 10.1 DSS | 10.8 DSS | 15.9 DSS | 8.25 DSS | 8.12 DSS | 24.2 DSS | 12.4 DSS
CS(=O)(=O)N1CCN(Cc2cc3nc(-c4cccc5[nH]ncc45)nc(N4CCOCC4)c3s2)CC1 [Pictilisib] | 2.33 DSS | 3.56 DSS | 7.68 DSS | 6.48 DSS | 6.67 DSS | 1.94 DSS | 5.04 DSS | 4.5 DSS | 5 DSS
COc1cc(Nc2c(C#N)cnc3cc(OCCCN4CCN(C)CC4)c(OC)cc23)c(Cl)cc1Cl [Bosutinib] | 6.47 DSS | 7.49 DSS | 7.49 DSS | 5.25 DSS | 5.37 DSS | 5.08 DSS | 5.38 DSS | 0.775 DSS | 8.4 DSS
CC(=O)c1c(C)c2cnc(Nc3ccc(N4CCNCC4)cn3)nc2n(C2CCCC2)c1=O [Palbociclib] | 3.02 DSS | 15.5 DSS | 5.78 DSS | 6.84 DSS | 9.52 DSS | 0 DSS | 5.11 DSS | 4.85 DSS | 2.8 DSS
C#Cc1cccc(Nc2ncnc3cc4c(cc23)OCCOCCOCCO4)c1 [Icotinib] | 0.075 DSS | 0.998 DSS | 2.41 DSS | 0.207 DSS | 0 DSS | 2.53 DSS | 0.21 DSS | 2.75 DSS | 0 DSS
CO[C@@H](C(=O)N1Cc2[nH]nc(NC(=O)c3ccc(N4CCN(C)CC4)cc3)c2C1)c1ccccc1 [Danusertib] | 7.82 DSS | 13 DSS | 6.91 DSS | 12.9 DSS | 5.43 DSS | 14.4 DSS | 6.55 DSS | 6.8 DSS | 5.2 DSS
COc1ncc(-c2ccc3nccc(-c4ccnnc4)c3c2)cc1NS(=O)(=O)c1ccc(F)cc1F [Omipalisib] | 6.45 DSS | 9.27 DSS | 11.6 DSS | 12.1 DSS | 11.3 DSS | 5.15 DSS | 10.9 DSS | 5.9 DSS | 8.15 DSS
COc1cc(Nc2ncc(F)c(Nc3ccc4c(n3)NC(=O)C(C)(C)O4)n2)cc(OC)c1OC [Tamatinib] | 10.5 DSS | 8.19 DSS | 5.27 DSS | 2.57 DSS | 7.75 DSS | 6.98 DSS | 2.87 DSS | 8.6 DSS | 0 DSS
CC[C@H](Nc1ncnc2[nH]cnc12)c1nc2cccc(F)c2c(=O)n1-c1ccccc1 [Idelalisib] | 1.38 DSS | 0.4 DSS | 9.76 DSS | 0.598 DSS | 1.96 DSS | 5.48 DSS | 1.42 DSS | 0 DSS | 3.9 DSS
COc1ccc(-c2ccc3c(N4CCOC[C@@H]4C)nc(N4CCOC[C@@H]4C)nc3n2)cc1CO [AZD8055] | 14.1 DSS | 16.7 DSS | 16.3 DSS | 19.6 DSS | 23.3 DSS | 14.9 DSS | 16.7 DSS | 20.2 DSS | 18.6 DSS
COc1ccc(-c2cc3c(C)nc(N)nc3n([C@H]3CC[C@H](OCCO)CC3)c2=O)cn1 | 9.49 DSS | 13.9 DSS | 19.2 DSS | 15 DSS | 15.4 DSS | 5.96 DSS | 16.1 DSS | 14.9 DSS | 9.1 DSS
COc1cc2c(cc1-c1c(C)noc1C)ncc1[nH]c(=O)n([C@H](C)c3ccccn3)c12 [I-BET151] | 4.86 DSS | 13.3 DSS | 1.34 DSS | 12.2 DSS | 8.89 DSS | 11.6 DSS | 7.05 DSS | 11.5 DSS | 4.4 DSS
COc1cc(Nc2ncc(F)c(Nc3ccc4c(n3)N(COP(=O)(O)O)C(=O)C(C)(C)O4)n2)cc(OC)c1OC [Fostamatinib] | 7.41 DSS | 1.22 DSS | 3.43 DSS | 1.04 DSS | 4.15 DSS | 3.04 DSS | 2.81 DSS | 9.75 DSS | 2.93 DSS
